{
  "source": "patent US8168650B2",
  "about": "“Therapeutic uses of bicyclic ligands of sigma 2 receptor” (priority 2006, dated 2012)",
  "key": {"[1]": {"biological_target": "T1, σ2 receptor (Rattus norvegicus, UniProt Q5U3Y7)", "T1 construct": "from tissue; host or cells: rat liver membrane homogenates", "T1 sequence (Q5U3Y7 1-176)": "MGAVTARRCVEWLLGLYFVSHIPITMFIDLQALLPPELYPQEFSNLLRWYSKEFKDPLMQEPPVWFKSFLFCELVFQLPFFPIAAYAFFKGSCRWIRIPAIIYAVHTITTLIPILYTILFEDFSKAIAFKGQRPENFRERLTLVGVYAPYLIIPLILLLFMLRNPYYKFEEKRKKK", "test": "σ2 receptor binding assay, [3H]DTG or [3H]RHM-1", "conditions": "for σ1/σ2 Ratio: Ki for σ1/Ki for σ2", "procedure": "(§2) In vitro binding studies were conducted in order to determine the affinity of the target compounds at σ1 and σ2 receptors.\n(§3) In this example, test compounds were dissolved in N,N-dimethylformamide (DMF), dimethylsulfoxide (DMSO) or ethanol and then diluted in 50 mM Tris-HCl, pH 7.4 buffer containing 150 mM NaCl and 100 mM EDTA. Membrane homogenates were made from guinea pig brain for σ1 binding assays and rat liver for σ2 binding assays. Membrane homogenates were diluted with 50 mM Tris-HCl buffer, pH 8.0, and incubated at 25° C. in a total volume of 150 μL in 96-well plates with the radioligand and test compounds with concentrations ranging from 0.1 nM to 10 μM. After incubation was completed, the reactions were terminated by the addition of 150 μL of ice-cold wash buffer (10 mM Tris-HCl, 150 mM NaCl, pH 7.4) using a 96-channel transfer pipette (Fisher Scientific, Pittsburgh, Pa.), and the samples harvested and filtered rapidly through 96-well fiberglass filter plate (Millipore, Billerica, Mass.) that had been presoaked with 100 μL of 50 mM Tris-HCl buffer, pH 8.0, for 1 h. Each filter was washed three times with 200 μL of ice cold wash buffer.\n(§4) Ki values were calculated using the method of Cheng and Prusoff20 and represent mean values±SEM."}, "[2]": {"system": "EMT-6 cells", "test": "Cytotoxicity assay (MTS) in EMT-6 cells", "assay_type": "cell-based, mouse", "procedure": "Cell culture conditions. EMT-6 mouse breast tumor cells^39 were cultured in DMEM supplemented with 10% fetal bovine serum. The cells were maintained at 37° C. in a humidified incubator with a 5% CO2/95% air atmosphere.\nIn these experiments, a number of sigma ligands, having a wide range of affinities for σ1 and σ2 receptors, were evaluated for their efficacy to kill EMT-6 cells. […] Cells were incubated for 24 hours or 48 hours with various concentrations of the sigma ligands. Cytotoxicity and cell viability were quantified using the MTS assay."}, "[3]": {"system": "MDA-MB-435 breast cancer cells", "test": "Cytotoxicity assay (MTS) in MDA-MB-435 cells", "assay_type": "cell-based", "conditions": "Homo sapiens", "protocol": "Cytotoxicity assay. The cytotoxic effect of the sigma ligands on EMT-6 cells was measured using the MTS colorimetric assay. MTS is bioreduced by cells into a colored formazan product with an absorbance at 490 nm. The quantity of the products is directly proportional to the number of viable cells in the culture. The MTS assay was performed using the CellTiter96Aqueous One Solution Assay (Promega, Madison, Wis.) according to the manufacturer's protocol. Briefly, EMT-6 cells were seeded at 2×10^3/well in 96-well plates on the day prior to treatment with the sigma ligand. Each sigma ligand was first dissolved in DMSO, and then serially diluted to get the desired concentration. The final concentration of DMSO in the cell culture medium was no more than 0.5%. After a 24 hour or 48 hour treatment with the various sigma ligands, cell death was assessed as follows. The CellTiter 96 AQueous One Solution Reagent was added to each well, and the plate was incubated for 2 hours at 37° C. The plate was then read at 490 nm in a Victor 3 plate reader (PerkinElmer Life and Analytical Sciences, Shelton, Conn.).\nIn these experiments, sigma ligands WC-II-26, SV119 and RHM-I-138 were evaluated for their efficacy to kill human MDA-MB-435 breast cancer cells. Cells were treated and analyzed as described for EMT-6 cells in Example 33. In these experiments cells were incubated for 24 hours or 48 hours with various concentrations of the sigma ligands."}, "[4]": {"system": "EMT-6 cells", "test": "TUNEL staining of DNA fragmentation in EMT-6 cells (microscopy, flow cytometry)", "assay_type": "cell-based, mouse", "conditions": "for TUNEL positive cells (flow cytometry): untreated control 2%; for DNA fragmentation, TUNEL staining in nuclei (fluorescence microscopy): EMT-6, WC-II-26 40 μM 48 h, SV119 100 μM 16 h, RHM-I-138 40 μM 16 h", "protocol": "Detection of apoptosis by fluorescence microscopy. The DNA fragmentation occurring during apoptosis was detected by the TUNEL staining method using the in situ cell death detection kit purchased from Roche Applied Science (Indianapolis, Ind.). Briefly, after treatment of EMT-6 cells with the sigma ligands, cells were fixed for 1 hour with 4% paraformaldehyde in phosphate buffered saline at room temperature and permeabilized with 0.1% Triton X-100 for 2 minutes on ice. The cells were then labeled by incubation with the TUNEL reaction mixture for 1 hour at 37° C. and analyzed using a Nikon inverted fluorescence microscope with a FITC filter.\n(§1) Detection and quantification of apoptosis by flow cytometry. The early stages of apoptosis are characterized by translocation of phosphatidyl serine (PS) from the inner surface of the plasma membrane to the outer surface of the membrane. Annexin V, a protein with high affinity for PS, was used to detect the externalization of PS. In these experiments cell death was quantified flow cytometrically using both an annexin V assay (Apoptosis Detection Kit, R &D Systems, Minneapolis, Minn.) and a TUNEL assay (Apodirect Kit, BD Biosciences Pharmingen, San Diego, Calif.). All of the data was collected and analyzed using a FACS scan flow cytometer (Becton Dickinson, Fullerton, Calif.).\nTo determine if the mechanism by which our σ2 selective ligands kill EMT-6 cells involves apoptosis, cells incubated with σ2 ligands were assayed by the TUNEL method. […] In these experiments, DNA fragmentation was detected by TUNEL staining and fluorescence microscopy (FIG. 6). Panel A: untreated cells. Panel B: Cells treated for 48 h with WC-II-26 (40 μM). Panel C: Cells treated for 16 h with SV119 (100 μM). Panel D: Cells treated for 16 h with RHM-I-138 (40 μM). […] At the designated times after treatment with WC-II-26, SV119 and RHM-I-138, TUNEL positive cells increased from 2% for the untreated control cells to 46%, 37% and 40%, respectively (FIG. 6B)."}, "[5]": {"system": "EMT-6 cells", "test": "Annexin V labeling by flow cytometry in EMT-6 cells", "assay_type": "cell-based, mouse", "description": "as §1\nAn early step in the induction of apoptosis is the membrane inversion of phosphatidyl serine (PS), which can be detected by the binding of annexin V to the cell surface. In early apoptosis, the cell membrane integrity is still intact, and the fluorescent marker, 7AAD, is excluded from the cell. Therefore, early apoptotic cells are annexin V positive and 7AAD negative. As apoptosis progresses, the cell membrane integrity is lost, and the cells become annexin V positive and 7AAD positive. EMT-6 cells treated with WC-II-26, SV119, and RHM-1-138 were analyzed by flow cytometry, and both early apoptotic death and late apoptotic death were detected after treatment with these three σ2 selective ligands (FIG. 7A). The percentage of EMT-6 cells with positive annexin V staining was 96.6±2.7%, 73.5±2.4%, and 48±6.4% after treatment with WCII-26, SV119 and RHM-I-138, respectively (FIG. 7B)."}, "[6]": {"biological_target": "σ1 receptor (Cavia porcellus, UniProt Q60492)", "sequence (Q60492 whole entry)": "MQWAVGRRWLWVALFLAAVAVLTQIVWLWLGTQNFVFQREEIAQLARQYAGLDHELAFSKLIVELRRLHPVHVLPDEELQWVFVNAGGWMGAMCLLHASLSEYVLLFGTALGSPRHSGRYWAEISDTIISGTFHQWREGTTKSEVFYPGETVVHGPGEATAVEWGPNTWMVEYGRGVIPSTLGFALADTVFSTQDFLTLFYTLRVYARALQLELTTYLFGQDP", "test": "σ1 receptor binding assay, [3H](+)-pentazocine", "conditions": "as listed in Table 2", "procedure": "as §2, §3, §4"}, "[7]": {"conditions": "Ki for σ2 (nM), as listed in Table 2"}, "[8]": {"conditions": "Ki σ2, inhibiting binding of [3H]DTG or [3H]RHM-1 to rat liver homogenates, mean ± SEM"}, "[9]": {"conditions": "Mus musculus, EMT6, 24 h, read-out: EC50 (μM, 24 hours), EMT-6, MTS assay, 24 hours"}, "[10]": {"conditions": "Mus musculus, EMT6, 48 h, read-out: EC50 (μM, 48 hours), EMT-6, MTS assay, 48 hours"}, "[11]": {"conditions": "read-out: IC50 (μM), MDA-MB-435, 24 hours"}, "[12]": {"conditions": "MDA-MB-435, 48 hours, read-out: IC50 (μM, 48 hours)"}},
  "note": "Where two headings read alike, the source gives them in different places.",
  "data": [
    {"smiles": "O[C@@H](CN1C2CCC1CC(c1ccccc1)C2)c1cccc(Br)c1", "note": "(some centres unmarked) [RHM-I-138]", "values": [
      {"measurement": "σ1/σ2 Ratio", "setting": "[1]", "result": 44},
      {"measurement": "Ki", "setting": "[1]; [7]", "result": 12.3, "unit": "nM"},
      {"measurement": "Ki", "setting": "[1]; [8]", "result": 12.3, "unit": "nM"},
      {"measurement": "EC50", "setting": "[2]; [9]", "result": "32.5 ± 3.5", "unit": "µM"},
      {"measurement": "EC50", "setting": "[2]; [10]", "result": 16, "unit": "µM"},
      {"measurement": "EC50", "setting": "[2]; read-out: EC50 (μM, 48 hours), EMT-6, MTS assay, 48 hours", "result": "16.5 ± 2.1", "unit": "µM"},
      {"measurement": "IC50", "setting": "[3]; [11]", "result": "26.7 ± 4.3", "unit": "µM"},
      {"measurement": "IC50", "setting": "[3]; [12]", "result": "19 ± 1.8", "unit": "µM"},
      {"measurement": "TUNEL positive cells (flow cytometry)", "setting": "[4]; EMT-6, 40 μM, 16 h", "result": 40, "unit": "%"},
      {"measurement": "DNA fragmentation, TUNEL staining in nuclei (fluorescence microscopy)", "setting": "[4]", "result": "positive TUNEL staining"},
      {"measurement": "percentage of EMT-6 cells with positive annexin V staining", "setting": "[5]; 40 μM, 16 h", "result": "48±6.4", "unit": "%"},
      {"measurement": "Ki", "setting": "[6]; read-out: Ki for σ1", "result": 544, "unit": "nM"}
    ]},
    {"smiles": "COc1ccc(C)cc1NC(=O)OC1CC2CCCC(C1)N2CCCCCCN", "note": "(centres unmarked) [SV119]", "values": [
      {"measurement": "Ki", "setting": "[1]; [7]", "result": 19.9, "unit": "nM"},
      {"measurement": "EC50", "setting": "[2]; [9]", "result": "16 ± 1.4", "unit": "µM"},
      {"measurement": "EC50", "setting": "[2]; [10]", "result": 11, "unit": "µM"},
      {"measurement": "IC50", "setting": "[3]; [11]", "result": "36.7 ± 3.3", "unit": "µM"},
      {"measurement": "IC50", "setting": "[3]; [12]", "result": "20.6 ± 2.7", "unit": "µM"},
      {"measurement": "TUNEL positive cells (flow cytometry)", "setting": "[4]; EMT-6, 100 μM, 16 h", "result": 37, "unit": "%"},
      {"measurement": "DNA fragmentation, TUNEL staining in nuclei (fluorescence microscopy)", "setting": "[4]", "result": "positive TUNEL staining"},
      {"measurement": "percentage of EMT-6 cells with positive annexin V staining", "setting": "[5]; 100 μM, 16 h", "result": "73.5±2.4", "unit": "%"},
      {"measurement": "Ki", "setting": "[6]; Ki for σ1 (nM)", "result": 1450, "unit": "nM"}
    ]},
    {"smiles": "COc1ccc(C)cc1NC(=O)O[C@H]1C[C@H]2CCC[C@@H](C1)N2Cc1ccc(N(C)C)cc1", "note": "[WC-II-26]", "values": [
      {"measurement": "σ1/σ2 Ratio", "setting": "[1]", "result": 511},
      {"measurement": "Ki", "setting": "[1]; [7]", "result": 10.8, "unit": "nM"},
      {"measurement": "Ki", "setting": "[1]; [8]", "result": 10.9, "unit": "nM"},
      {"measurement": "EC50", "setting": "[2]; [9]", "result": "42.5 ± 3.5", "unit": "µM"},
      {"measurement": "EC50", "setting": "[2]; [10]", "result": 12.5, "unit": "µM"},
      {"measurement": "IC50", "setting": "[3]; [11]", "result": "51.6 ± 6", "unit": "µM"},
      {"measurement": "IC50", "setting": "[3]; [12]", "result": "43.2 ± 2", "unit": "µM"},
      {"measurement": "TUNEL positive cells (flow cytometry)", "setting": "[4]; EMT-6, 40 μM, 48 h", "result": 46, "unit": "%"},
      {"measurement": "DNA fragmentation, TUNEL staining in nuclei (fluorescence microscopy)", "setting": "[4]", "result": "positive TUNEL staining"},
      {"measurement": "percentage of EMT-6 cells with positive annexin V staining", "setting": "[5]; 40 μM, 48 h", "result": "96.6±2.7", "unit": "%"},
      {"measurement": "Ki", "setting": "[6]; Ki for σ1 (nM)", "result": 5570, "unit": "nM"}
    ]}
  ]
}
